# How the values were obtained:
# Design in all cases: scale not given: the % may be the effect or the level left
# [1] = target: Tyrosine-protein kinase Fes/Fps (Homo sapiens) (UniProt P07332); test: Inhibition of DNA-tagged human FES assessed as percent of control at 50000 nM by qPCR analysis relative to control
# [2] = target: Dual specificity protein kinase TTK (Homo sapiens) (UniProt P33981); test: Inhibition of DNA-tagged human TTK assessed as percent of control at 50000 nM by qPCR analysis relative to control
# [3] = target: Serine/threonine-protein kinase TNNI3K (Homo sapiens) (UniProt Q59H18); test: Inhibition of DNA-tagged human TNNI3K assessed as percent of control at 50000 nM by qPCR analysis relative to control
# [4] = target: Tyrosine-protein kinase ABL1 (Homo sapiens) (UniProt P00519); test: Inhibition of DNA-tagged phosphorylated human ABL1 assessed as percent of control at 50000 nM by qPCR analysis relative to control
# [5] = target: Non-receptor tyrosine-protein kinase TYK2 (Homo sapiens) (UniProt P29597); test: Inhibition of DNA-tagged human TYK2 JH1 catalytic domain assessed as percent of control at 50000 nM by qPCR analysis relative to control
# [6] = system: Fibroblast growth factor receptor 3 (Homo sapiens), P22607 [G697C]; test: Inhibition of DNA-tagged human FGFR3 G697C mutant assessed as percent of control at 50000 nM by qPCR analysis relative to control
# [7] = target: Serine/threonine-protein kinase RIO3 (Homo sapiens) (UniProt O14730); test: Inhibition of DNA-tagged human RIOK3 assessed as percent of control at 50000 nM by qPCR analysis relative to control
# [8] = target: Rhodopsin kinase GRK1 (Homo sapiens) (UniProt Q15835); test: Inhibition of DNA-tagged human GRK1 assessed as percent of control at 50000 nM by qPCR analysis relative to control
# Sequence of Rhodopsin kinase GRK1 (Homo sapiens) (Q15835 whole entry): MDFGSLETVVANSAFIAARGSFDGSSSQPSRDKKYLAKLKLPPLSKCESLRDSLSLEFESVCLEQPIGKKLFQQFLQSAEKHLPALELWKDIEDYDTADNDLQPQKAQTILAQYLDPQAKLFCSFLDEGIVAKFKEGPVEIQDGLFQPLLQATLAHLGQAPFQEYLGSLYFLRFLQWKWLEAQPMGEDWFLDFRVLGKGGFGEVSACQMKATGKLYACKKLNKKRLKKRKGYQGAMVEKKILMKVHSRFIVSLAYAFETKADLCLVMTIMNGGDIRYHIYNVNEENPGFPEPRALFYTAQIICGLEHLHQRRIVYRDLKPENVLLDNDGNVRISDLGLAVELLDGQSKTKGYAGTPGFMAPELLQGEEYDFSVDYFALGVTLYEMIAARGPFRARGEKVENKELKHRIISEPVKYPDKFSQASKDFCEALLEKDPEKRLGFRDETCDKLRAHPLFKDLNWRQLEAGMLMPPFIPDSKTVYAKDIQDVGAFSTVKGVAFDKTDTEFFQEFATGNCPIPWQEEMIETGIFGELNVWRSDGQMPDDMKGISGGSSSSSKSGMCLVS
# [9] = target: Myosin light chain kinase, smooth muscle (Homo sapiens) (UniProt Q15746); test: Inhibition of DNA-tagged human MYLK assessed as percent of control at 50000 nM by qPCR analysis relative to control
# [10] = target: Phosphatidylinositol 4-kinase beta (Homo sapiens) (UniProt Q9UBF8); test: Inhibition of DNA-tagged human PIK4CB assessed as percent of control at 50000 nM by qPCR analysis relative to control
# [11] = system: Tyrosine-protein kinase ABL1 (Homo sapiens), P00519 [Y253F]; test: Inhibition of DNA-tagged phosphorylated human ABL1 Y253F mutant assessed as percent of control at 50000 nM by qPCR analysis relative to control
# [12] = system: Receptor-type tyrosine-protein kinase FLT3 (Homo sapiens), P36888 [R834Q]; test: Inhibition of DNA-tagged human FLT3 R834Q mutant assessed as percent of control at 50000 nM by qPCR analysis relative to control
# [13] = target: Serine/threonine-protein kinase 26 (Homo sapiens) (UniProt Q9P289); test: Inhibition of DNA-tagged human MST4 assessed as percent of control at 50000 nM by qPCR analysis relative to control
# [14] = target: Tyrosine-protein kinase HCK (Homo sapiens) (UniProt P08631); test: Inhibition of DNA-tagged human HCK assessed as percent of control at 50000 nM by qPCR analysis relative to control
# [15] = target: Ribosomal protein S6 kinase alpha-5 (Homo sapiens) (UniProt O75582); test: Inhibition of DNA-tagged human N-terminal RPS6KA5 kinase domain 1 assessed as percent of control at 50000 nM by qPCR analysis relative to control
# Sequence of Ribosomal protein S6 kinase alpha-5 (Homo sapiens) (O75582 whole entry, looked up, the tested form may be a part): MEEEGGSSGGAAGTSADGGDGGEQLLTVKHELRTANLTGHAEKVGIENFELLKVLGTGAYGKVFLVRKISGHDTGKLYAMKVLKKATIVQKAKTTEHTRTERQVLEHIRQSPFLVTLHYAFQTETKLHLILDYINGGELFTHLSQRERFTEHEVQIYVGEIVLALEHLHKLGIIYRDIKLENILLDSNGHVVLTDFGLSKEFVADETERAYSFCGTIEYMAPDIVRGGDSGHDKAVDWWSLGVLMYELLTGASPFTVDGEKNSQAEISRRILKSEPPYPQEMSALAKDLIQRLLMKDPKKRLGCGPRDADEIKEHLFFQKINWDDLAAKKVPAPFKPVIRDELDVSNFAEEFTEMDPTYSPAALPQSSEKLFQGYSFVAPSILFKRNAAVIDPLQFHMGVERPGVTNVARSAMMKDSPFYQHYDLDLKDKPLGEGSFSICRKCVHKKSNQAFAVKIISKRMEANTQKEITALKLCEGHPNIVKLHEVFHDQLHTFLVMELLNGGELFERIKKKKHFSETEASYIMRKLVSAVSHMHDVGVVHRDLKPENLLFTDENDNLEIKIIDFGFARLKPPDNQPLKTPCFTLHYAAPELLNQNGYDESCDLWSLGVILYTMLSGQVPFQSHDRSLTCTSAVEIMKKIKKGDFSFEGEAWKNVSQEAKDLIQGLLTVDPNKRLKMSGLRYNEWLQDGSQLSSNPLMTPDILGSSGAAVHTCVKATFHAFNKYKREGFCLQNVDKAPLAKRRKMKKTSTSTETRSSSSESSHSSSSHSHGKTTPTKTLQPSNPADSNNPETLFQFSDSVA
# [16] = target: Serine/threonine-protein kinase B-raf (Homo sapiens) (UniProt P15056); test: Inhibition of DNA-tagged human BRAF assessed as percent of control at 50000 nM by qPCR analysis relative to control
# Sequence of Serine/threonine-protein kinase B-raf (Homo sapiens) (P15056 whole entry): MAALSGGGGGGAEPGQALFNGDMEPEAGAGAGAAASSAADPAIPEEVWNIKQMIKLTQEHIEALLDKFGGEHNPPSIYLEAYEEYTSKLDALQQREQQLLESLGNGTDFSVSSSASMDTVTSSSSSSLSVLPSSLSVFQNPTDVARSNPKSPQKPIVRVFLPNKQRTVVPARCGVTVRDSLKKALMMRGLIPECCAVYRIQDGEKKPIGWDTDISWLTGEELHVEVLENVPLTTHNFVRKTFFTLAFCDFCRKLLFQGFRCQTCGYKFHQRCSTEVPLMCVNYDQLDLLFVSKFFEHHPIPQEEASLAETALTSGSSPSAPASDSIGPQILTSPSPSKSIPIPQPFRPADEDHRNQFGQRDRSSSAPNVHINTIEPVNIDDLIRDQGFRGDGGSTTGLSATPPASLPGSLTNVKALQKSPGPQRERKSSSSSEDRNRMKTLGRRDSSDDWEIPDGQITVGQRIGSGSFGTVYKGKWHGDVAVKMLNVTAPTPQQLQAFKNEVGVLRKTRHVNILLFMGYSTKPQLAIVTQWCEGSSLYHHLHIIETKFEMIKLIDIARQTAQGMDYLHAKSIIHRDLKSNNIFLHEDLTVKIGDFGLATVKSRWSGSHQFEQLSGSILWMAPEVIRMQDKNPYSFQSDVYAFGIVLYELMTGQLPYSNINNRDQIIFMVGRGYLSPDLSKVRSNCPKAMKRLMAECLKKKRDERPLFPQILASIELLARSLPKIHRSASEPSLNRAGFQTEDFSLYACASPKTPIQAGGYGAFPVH
# [17] = target: Peripheral plasma membrane protein CASK (Homo sapiens) (UniProt O14936); test: Inhibition of DNA-tagged human CASK assessed as percent of control at 50000 nM by qPCR analysis relative to control
# Sequence of Peripheral plasma membrane protein CASK (Homo sapiens) (O14936 whole entry): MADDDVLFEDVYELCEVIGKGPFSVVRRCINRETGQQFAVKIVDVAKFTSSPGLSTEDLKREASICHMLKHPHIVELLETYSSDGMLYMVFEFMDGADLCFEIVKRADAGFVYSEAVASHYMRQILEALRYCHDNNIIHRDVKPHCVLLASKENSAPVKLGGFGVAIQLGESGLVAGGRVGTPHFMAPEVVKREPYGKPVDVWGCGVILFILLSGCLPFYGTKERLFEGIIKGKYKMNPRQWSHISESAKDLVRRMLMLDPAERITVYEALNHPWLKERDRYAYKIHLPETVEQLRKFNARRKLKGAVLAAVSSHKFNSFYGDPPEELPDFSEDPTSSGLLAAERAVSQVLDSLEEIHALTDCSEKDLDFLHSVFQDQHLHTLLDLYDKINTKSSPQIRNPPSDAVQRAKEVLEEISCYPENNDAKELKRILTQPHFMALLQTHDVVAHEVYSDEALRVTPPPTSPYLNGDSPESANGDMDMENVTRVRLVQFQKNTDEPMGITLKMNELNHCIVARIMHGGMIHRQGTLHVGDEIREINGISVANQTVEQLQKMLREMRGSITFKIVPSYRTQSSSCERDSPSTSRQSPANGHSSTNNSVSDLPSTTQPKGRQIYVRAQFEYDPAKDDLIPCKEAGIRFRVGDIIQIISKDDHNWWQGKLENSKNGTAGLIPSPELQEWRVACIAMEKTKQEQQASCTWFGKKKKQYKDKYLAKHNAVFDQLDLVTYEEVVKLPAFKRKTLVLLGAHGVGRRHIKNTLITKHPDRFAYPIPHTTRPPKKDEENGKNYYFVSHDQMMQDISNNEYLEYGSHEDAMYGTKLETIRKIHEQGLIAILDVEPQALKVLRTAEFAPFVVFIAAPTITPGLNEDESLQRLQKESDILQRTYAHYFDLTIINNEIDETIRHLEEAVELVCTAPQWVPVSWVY
# [18] = target: Rho-associated protein kinase 1 (Homo sapiens) (UniProt Q13464); test: Inhibition of DNA-tagged human ROCK1 assessed as percent of control at 50000 nM by qPCR analysis relative to control
# [19] = target: Tyrosine-protein kinase Fer (Homo sapiens) (UniProt P16591); test: Inhibition of DNA-tagged human FER assessed as percent of control at 50000 nM by qPCR analysis relative to control
# [20] = target: 5'-AMP-activated protein kinase catalytic subunit alpha-1 (Homo sapiens) (UniProt Q13131); test: Inhibition of DNA-tagged human AMPK-alpha1 assessed as percent of control at 50000 nM by qPCR analysis relative to control
# [21] = target: Phosphatidylinositol 5-phosphate 4-kinase type-2 gamma (Homo sapiens) (UniProt Q8TBX8); test: Inhibition of DNA-tagged human PIP5K2C assessed as percent of control at 50000 nM by qPCR analysis relative to control
# [22] = target: Serine/threonine-protein kinase MRCK gamma (Homo sapiens) (UniProt Q6DT37); test: Inhibition of DNA-tagged human DMPK2 assessed as percent of control at 50000 nM by qPCR analysis relative to control
# [23] = system: Epidermal growth factor receptor (Homo sapiens), P00533 [G719S]; test: Inhibition of DNA-tagged human EGFR G719S assessed as percent of control at 50000 nM by qPCR analysis relative to control
# [24] = target: Dual specificity mitogen-activated protein kinase kinase 7 (Homo sapiens) (UniProt O14733); test: Inhibition of DNA-tagged human MKK7 assessed as percent of control at 50000 nM by qPCR analysis relative to control
# Sequence of Dual specificity mitogen-activated protein kinase kinase 7 (Homo sapiens) (O14733 whole entry): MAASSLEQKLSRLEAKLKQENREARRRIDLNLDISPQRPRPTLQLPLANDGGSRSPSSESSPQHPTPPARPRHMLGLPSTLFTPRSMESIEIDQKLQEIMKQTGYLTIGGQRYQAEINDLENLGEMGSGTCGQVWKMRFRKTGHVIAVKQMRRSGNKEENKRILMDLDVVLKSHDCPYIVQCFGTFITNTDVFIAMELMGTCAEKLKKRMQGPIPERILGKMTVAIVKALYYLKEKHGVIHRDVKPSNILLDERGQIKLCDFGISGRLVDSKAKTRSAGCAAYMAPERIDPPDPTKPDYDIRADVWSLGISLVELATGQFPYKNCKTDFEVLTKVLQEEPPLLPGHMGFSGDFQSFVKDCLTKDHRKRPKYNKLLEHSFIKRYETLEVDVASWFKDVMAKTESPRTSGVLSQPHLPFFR
# [25] = target: Serine/threonine-protein kinase Nek11 (Homo sapiens) (UniProt Q8NG66); test: Inhibition of DNA-tagged human NEK11 assessed as percent of control at 50000 nM by qPCR analysis relative to control
# [26] = target: Cyclin-dependent kinase 7 (Homo sapiens) (UniProt P50613); test: Inhibition of DNA-tagged human CDK7 assessed as percent of control at 50000 nM by qPCR analysis relative to control
# [27] = target: Tyrosine-protein kinase receptor TYRO3 (Homo sapiens) (UniProt Q06418); test: Inhibition of DNA-tagged human TYRO3 assessed as percent of control at 50000 nM by qPCR analysis relative to control
# [28] = target: cGMP-dependent protein kinase 2 (Homo sapiens) (UniProt Q13237); test: Inhibition of DNA-tagged human PRKG2 assessed as percent of control at 50000 nM by qPCR analysis relative to control
# Sequence of cGMP-dependent protein kinase 2 (Homo sapiens) (Q13237 whole entry): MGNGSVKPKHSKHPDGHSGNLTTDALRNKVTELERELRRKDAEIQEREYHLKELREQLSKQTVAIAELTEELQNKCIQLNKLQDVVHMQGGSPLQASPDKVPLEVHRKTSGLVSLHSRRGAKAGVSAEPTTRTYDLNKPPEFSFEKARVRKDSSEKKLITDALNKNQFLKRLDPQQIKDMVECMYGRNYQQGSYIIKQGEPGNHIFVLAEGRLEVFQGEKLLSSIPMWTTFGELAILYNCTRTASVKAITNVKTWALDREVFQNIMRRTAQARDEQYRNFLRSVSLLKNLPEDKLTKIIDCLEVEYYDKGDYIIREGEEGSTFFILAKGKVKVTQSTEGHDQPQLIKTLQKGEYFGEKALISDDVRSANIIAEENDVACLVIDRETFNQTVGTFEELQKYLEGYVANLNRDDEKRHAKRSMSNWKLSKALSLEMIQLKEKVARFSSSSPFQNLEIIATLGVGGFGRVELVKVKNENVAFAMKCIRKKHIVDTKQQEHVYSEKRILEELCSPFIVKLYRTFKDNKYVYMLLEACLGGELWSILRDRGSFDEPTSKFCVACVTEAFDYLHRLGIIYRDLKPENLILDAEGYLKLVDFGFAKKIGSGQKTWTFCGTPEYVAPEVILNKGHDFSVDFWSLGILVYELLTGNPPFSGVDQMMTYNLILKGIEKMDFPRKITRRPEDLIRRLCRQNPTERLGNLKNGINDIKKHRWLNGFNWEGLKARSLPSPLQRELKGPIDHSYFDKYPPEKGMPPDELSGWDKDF
# [29] = target: NUAK family SNF1-like kinase 1 (Homo sapiens) (UniProt O60285); test: Inhibition of DNA-tagged human ARK5 assessed as percent of control at 50000 nM by qPCR analysis relative to control
# Sequence of Tyrosine-protein kinase Fes/Fps (Homo sapiens) (P07332 whole entry): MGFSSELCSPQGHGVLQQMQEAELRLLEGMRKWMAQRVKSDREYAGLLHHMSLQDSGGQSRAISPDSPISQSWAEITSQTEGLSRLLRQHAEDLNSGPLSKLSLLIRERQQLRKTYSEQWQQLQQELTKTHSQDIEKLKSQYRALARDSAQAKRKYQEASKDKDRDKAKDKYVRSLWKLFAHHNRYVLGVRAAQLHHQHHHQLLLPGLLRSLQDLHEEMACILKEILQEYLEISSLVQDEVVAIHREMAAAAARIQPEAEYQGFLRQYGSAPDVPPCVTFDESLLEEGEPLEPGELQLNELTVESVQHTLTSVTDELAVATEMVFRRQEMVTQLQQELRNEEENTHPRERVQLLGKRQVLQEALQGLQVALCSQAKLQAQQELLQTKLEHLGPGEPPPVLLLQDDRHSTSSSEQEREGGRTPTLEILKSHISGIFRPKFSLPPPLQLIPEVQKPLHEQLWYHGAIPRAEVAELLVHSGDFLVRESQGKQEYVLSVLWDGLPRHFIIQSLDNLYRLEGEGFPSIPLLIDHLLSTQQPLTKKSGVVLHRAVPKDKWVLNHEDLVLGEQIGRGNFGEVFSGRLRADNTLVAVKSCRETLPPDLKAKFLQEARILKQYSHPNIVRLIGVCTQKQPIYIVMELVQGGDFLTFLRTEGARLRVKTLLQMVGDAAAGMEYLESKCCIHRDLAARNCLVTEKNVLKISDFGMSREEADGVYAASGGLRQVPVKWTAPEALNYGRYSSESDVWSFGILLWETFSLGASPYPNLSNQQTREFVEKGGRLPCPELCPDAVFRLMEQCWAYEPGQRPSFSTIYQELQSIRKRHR
structure (smiles),measurement,setting,value
CN1C(=O)/C(=C2/C(=O)Nc3ccccc32)c2ccccc21,Activity,[1],95%
same,Activity,[2],88%
same,Activity,[3],95%
same,Activity,[4],96%
same,Activity,[5],77%
same,Activity,[6],100%
same,Activity,[7],89%
same,Activity,[8],100%
same,Activity,[9],82%
same,Activity,[10],100%
same,Activity,[11],100%
same,Activity,[12],100%
same,Activity,[13],100%
same,Activity,[14],100%
same,Activity,[15],100%
same,Activity,[16],84%
same,Activity,[17],100%
same,Activity,[18],87%
same,Activity,[19],88%
same,Activity,[20],100%
same,Activity,[21],55%
same,Activity,[22],92%
same,Activity,[23],94%
same,Activity,[24],75%
same,Activity,[25],100%
same,Activity,[26],100%
same,Activity,[27],77%
same,Activity,[28],94%
same,Activity,[29],85%

# — ChEMBL document CHEMBL4804284
